According to US10550100B2, “5-[3-[piperzin-1-yl]-3-oxo-propyl]-imidazolidine-2,4-dione derivatives as ADAMTS 4 and 5 inhibitors for treating E.G. osteoarthritis” (GALAPAGOS NV, priority 2016, dated 2020):

How the values were obtained:
Type in all cases: biochemical
[1] = molecular target: human ADAMTS-5 (Homo sapiens (Human), UniProt Q9UNA0); assay: hADAMTS-5 TBIS-1 cleavage assay, Protocol 2; details: Protocol 2, TBIS-1 substrate, 45 min at 37° C.; read-out: hADAMTS-5 potency IC50
Method: The basis for the assay is the cleavage of the substrate TBIS-1 (5 FAM-[…] (5TAMRA)K-NH2) (SEQ ID NO: 2) by human ADAMTS-5.
(§1) The reaction is initiated by adding to the assay plate TBIS-1 (10 μL, 4.5 μM, Anaspec) in the same buffer.
Finally, the fluorescence is read on the Envision (Perkin Elmer) after an incubation of 45 min at 37° C. (Excitation 485 nm, emission 530).

[2] = molecular target: human MMP13 (Homo sapiens (Human), UniProt P45452); assay: hMMP13 390 MMP FRET Substrate I cleavage assay, Protocol 1; details: Protocol 1, 390 MMP FRET Substrate I; read-out: hMMP-13 potency IC50
In short: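 Human MMP13 was preactivated with 1 mM p-aminophenylmercuric acetate for 1 h at 37° C. Cleavage of 390 MMP FRET Substrate I (2.5 μM as added) ran 45 min at room temperature, with fluorescence read at 485 nm excitation and 530 nm emission.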

[3] = molecular target: human ADAMTS6 (Homo sapiens (Human), UniProt Q9UKP5); assay: hADAMTS-6 520 MMP FRET substrate XII cleavage assay; details: 37° C. for 2 h, read-out: hADAMTS-6 potency IC50
human ADAMTS6, sequence (Q9UKP5 other isoform, or with tags, fused parts or gaps): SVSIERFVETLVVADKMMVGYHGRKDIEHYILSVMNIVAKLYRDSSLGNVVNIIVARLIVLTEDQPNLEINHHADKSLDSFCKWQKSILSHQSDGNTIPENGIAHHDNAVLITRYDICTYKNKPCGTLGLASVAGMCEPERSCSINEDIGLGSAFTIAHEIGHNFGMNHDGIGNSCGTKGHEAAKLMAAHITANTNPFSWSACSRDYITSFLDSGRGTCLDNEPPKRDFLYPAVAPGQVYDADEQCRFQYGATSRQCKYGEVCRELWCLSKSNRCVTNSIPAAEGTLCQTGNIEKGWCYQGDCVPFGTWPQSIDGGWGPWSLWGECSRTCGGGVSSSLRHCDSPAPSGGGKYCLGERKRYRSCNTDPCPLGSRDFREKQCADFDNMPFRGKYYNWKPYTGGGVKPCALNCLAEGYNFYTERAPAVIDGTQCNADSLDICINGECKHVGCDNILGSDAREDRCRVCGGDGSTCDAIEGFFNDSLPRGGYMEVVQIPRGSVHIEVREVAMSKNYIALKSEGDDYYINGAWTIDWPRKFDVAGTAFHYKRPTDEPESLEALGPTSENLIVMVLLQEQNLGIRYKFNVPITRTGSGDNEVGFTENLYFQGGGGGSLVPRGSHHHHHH
In short: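 FRET cleavage of 520 MMP Substrate XII (Arg-Pro-Lys-Pro-Tyr-Ala-Nva-Trp-Met-Lys) by 0.73 nM enzyme in 25 mM Tris pH8.0, 0.05% CHAPS, 2.5 mM CaCl2. Compound dilution series from 20 μM top, 1/5 steps; substrate added from 1 μM stock, 2 h at 37° C. Fluorescence read at exc485/em530 for IC50.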

[4] = molecular target: human TACE (Homo sapiens (Human), UniProt P78536); assay: hTACE 5FAM-[…]-5TAMRA cleavage assay; details: 5FAM-LAQAVRSSSRK-5TAMRA, 75 min at room temperature; read-out: hTACE potency IC50
human TACE, sequence (P78536 215-671): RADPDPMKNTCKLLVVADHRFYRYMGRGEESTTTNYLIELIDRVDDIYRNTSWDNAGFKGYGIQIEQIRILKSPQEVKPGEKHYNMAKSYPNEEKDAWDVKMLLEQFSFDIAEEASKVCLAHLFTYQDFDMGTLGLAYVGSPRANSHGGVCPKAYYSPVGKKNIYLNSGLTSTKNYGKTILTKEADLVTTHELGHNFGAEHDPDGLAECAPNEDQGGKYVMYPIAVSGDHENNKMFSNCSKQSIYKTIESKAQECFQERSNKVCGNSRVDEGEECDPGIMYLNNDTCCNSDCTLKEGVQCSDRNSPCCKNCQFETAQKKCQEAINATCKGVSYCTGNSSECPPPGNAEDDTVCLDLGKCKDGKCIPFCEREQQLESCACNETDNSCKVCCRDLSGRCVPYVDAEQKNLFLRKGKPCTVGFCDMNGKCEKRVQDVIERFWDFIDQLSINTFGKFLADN
Method: Finally, the fluorescence is read on the Envision (Perkin Elmer) after an incubation of 75 min at room temperature (Excitation 485 nm, Emission 530).

[5] = molecular target: rnADAMTS-5 (1-564-6H) (Rattus norvegicus (Rat), UniProt Q6TY19); assay: Rat ADAMTS-5 TBIS-1 substrate cleavage assay; details: rnADAMTS-5, TBIS-1 substrate, 120 min at 37° C.; read-out: Rat ADAMTS-5 potency IC50
rnADAMTS-5 (1-564-6H), sequence (Q6TY19 entry or part of it): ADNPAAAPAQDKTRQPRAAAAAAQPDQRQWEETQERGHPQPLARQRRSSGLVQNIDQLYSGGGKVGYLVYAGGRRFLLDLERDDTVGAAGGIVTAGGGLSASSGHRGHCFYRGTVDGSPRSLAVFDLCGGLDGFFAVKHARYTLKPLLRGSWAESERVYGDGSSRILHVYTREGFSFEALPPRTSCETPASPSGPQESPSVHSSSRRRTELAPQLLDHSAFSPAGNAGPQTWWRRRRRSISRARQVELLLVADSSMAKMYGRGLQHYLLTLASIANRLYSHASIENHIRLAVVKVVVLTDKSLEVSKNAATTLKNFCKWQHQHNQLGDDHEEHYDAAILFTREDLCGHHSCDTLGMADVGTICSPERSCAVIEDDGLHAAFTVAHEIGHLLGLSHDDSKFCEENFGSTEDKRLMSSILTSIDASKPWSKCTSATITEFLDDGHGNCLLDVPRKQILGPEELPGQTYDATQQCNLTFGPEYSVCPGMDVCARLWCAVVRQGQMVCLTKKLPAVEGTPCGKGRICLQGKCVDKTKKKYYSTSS
Method: The basis for the assay is the cleavage of the substrate TBIS-1 (5 FAM-[…] (5TAMRA)K-NH2) (SEQ ID NO: 2) by rnADAMTS-5 (1-564-6H).
as §1
Finally, the fluorescence is read on the Envision (Perkin Elmer) after an incubation of 120 min at 37° C. (Excitation 485 nm, emission 535).

human ADAMTS-5, sequence (Q9UNA0 262-930): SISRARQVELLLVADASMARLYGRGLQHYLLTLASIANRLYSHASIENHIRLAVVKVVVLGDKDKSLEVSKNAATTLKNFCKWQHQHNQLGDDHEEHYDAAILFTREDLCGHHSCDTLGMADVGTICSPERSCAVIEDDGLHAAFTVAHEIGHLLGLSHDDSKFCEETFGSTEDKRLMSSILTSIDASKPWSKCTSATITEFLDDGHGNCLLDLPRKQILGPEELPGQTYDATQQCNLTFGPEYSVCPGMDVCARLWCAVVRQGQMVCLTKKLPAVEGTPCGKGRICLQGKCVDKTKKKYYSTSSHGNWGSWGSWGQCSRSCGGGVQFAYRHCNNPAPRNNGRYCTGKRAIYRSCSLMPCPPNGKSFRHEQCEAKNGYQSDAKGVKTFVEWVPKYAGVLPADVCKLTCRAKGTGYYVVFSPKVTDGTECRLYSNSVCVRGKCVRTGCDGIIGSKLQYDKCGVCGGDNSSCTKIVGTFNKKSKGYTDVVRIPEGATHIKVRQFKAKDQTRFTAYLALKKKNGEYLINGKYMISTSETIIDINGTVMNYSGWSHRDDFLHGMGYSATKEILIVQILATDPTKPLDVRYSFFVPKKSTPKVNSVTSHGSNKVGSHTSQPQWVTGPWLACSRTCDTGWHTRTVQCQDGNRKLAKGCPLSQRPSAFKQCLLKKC

| Structure (SMILES) | IC50 [1] | IC50 [2] | IC50 [3] | IC50 [4] | IC50 [5] |
| --- | --- | --- | --- | --- | --- |
| CC1(CCC(=O)N2CCC(c3ccc(Cl)cc3)CC2)NC(=O)NC1=O (stereo not shown) [Cpd 12, 5-(3-(4-(4-chlorophenyl)piperidin-1-yl)-3-oxopropyl)-5-methyl-imidazolidine-2,4-dione] | > 100 nM | > 100 nM | 50 to 100 nM | > 100 nM |  |
| O=C1NC(=O)C(CCC(=O)N2CCC(c3ccccc3)CC2)(c2cccnc2)N1 (stereo not shown) [Cpd 16, 5-(3-oxo-3-(4-phenyl-piperidin-1-yl)propyl)-5-(pyridin-3-yl)imidazolidine-2,4-dione] | 50 to 100 nM | > 100 nM | > 100 nM | > 100 nM | 50 to 100 nM |
| CC1(CCC(=O)N2CCC(c3ccc(F)cc3)CC2)NC(=O)NC1=O (stereo not shown) [Cpd 10, 5-(3-(4-(4-fluorophenyl)piperidin-1-yl)-3-oxopropyl)-5-methyl-imidazolidine-2,4-dione] | > 100 nM | > 100 nM | > 100 nM | > 100 nM |  |
| O=C1NC(=O)C(CCC(=O)N2CCC(c3ccccc3)CC2)(c2ccccc2)N1 (stereo not shown) [Cpd 3, 5-(3-oxo-3-(4-phenylpiperidin-1-yl)propyl)-5-phenyl imidazolidine-2,4-dione] | 50 to 100 nM |  | > 100 nM | > 100 nM | 50 to 100 nM |
| O=C1NC(=O)C(CCC(=O)N2CCC(c3ccccc3)CC2)(C2CC2)N1 (stereo not shown) [Cpd 7, 5-cyclopropyl-5-(3-oxo-3-(4-phenylpiperidin-1-yl)propyl) imidazolidine-2,4-dione] | 50 to 100 nM | > 100 nM | > 100 nM | > 100 nM | 50 to 100 nM |
| O=C1NC(=O)[C@H](CCC(=O)N2CCC(c3ccccc3)CC2)N1 [Cpd 1, (S)-5-[(3-oxo-3-((4S)-phenylpiperidin-1-yl)propyl]) imidazolidine-2,4-dione] | > 100 nM |  | > 100 nM |  |  |
| CC1(CCC(=O)N2CCC(c3cc(Cl)cc(Cl)c3)CC2)NC(=O)NC1=O (stereo not shown) [Cpd 9, 5-(3-(4-(3,5-dichlorophenyl)piperidin-1-yl)-3-oxopropyl)-5-methyl-imidazolidine-2,4-dione] | 50 to 100 nM | > 100 nM | 25 to 50 nM | > 100 nM | > 100 nM |
| O=C1NC(=O)C(CCC(=O)N2CCC(c3ccccc3)CC2)N1 (stereo not shown) [Cpd 2, 5-[3-oxo-3-(4-phenyl-1-piperidyl)propyl] imidazolidine-2,4-dione] | > 100 nM |  | > 100 nM | > 100 nM |  |
| CC1(CCC(=O)N2CCC(c3ccccc3)CC2)NC(=O)NC1=O (stereo not shown) [Cpd 4, 5-methyl-5-(3-oxo-3-(4-phenylpiperidin-1-yl)propyl) imidazolidine-2,4-dione] | > 100 nM |  | > 100 nM | > 100 nM |  |
| CC1(CCC(=O)N2CCC(c3cccc(Cl)c3)CC2)NC(=O)NC1=O (stereo not shown) [Cpd 11, 5-(3-(4-(3-chlorophenyl)piperidin-1-yl)-3-oxopropyl)-5-methyl-imidazolidine-2,4-dione] | > 100 nM | > 100 nM | 50 to 100 nM | > 100 nM |  |
| COc1ccccc1C1CCN(C(=O)CCC2(C)NC(=O)NC2=O)CC1 (stereo not shown) [Cpd 6, 5-(3-(4-(2-methoxyphenyl)piperidin-1-yl)-3-oxopropyl)-5-methyl-imidazolidine-2,4-dione] | > 100 nM |  | > 100 nM |  |  |
| CC1(CCC(=O)N2CCC(c3ccccc3F)CC2)NC(=O)NC1=O (stereo not shown) [Cpd 14, 5-(3-(4-(2-fluorophenyl)piperidin-1-yl)-3-oxopropyl)-5-methyl-imidazolidine-2,4-dione] | > 100 nM |  | > 100 nM |  |  |
| CC(C)C1(CCC(=O)N2CCC(c3ccccc3)CC2)NC(=O)NC1=O (stereo not shown) [Cpd 5, 5-isopropyl-5-(3-oxo-3-(4-phenylpiperidin-1-yl)propyl) imidazolidine-2,4-dione] | 50 to 100 nM |  | > 100 nM | > 100 nM |  |
